According to US20250059172A1, “INDAZOLE COMPOUND AND PHARMACEUTICAL” (NIPPON SHINYAKU CO., LTD., priority 2021, published 2025):
pIC50: −log10 of the molar value.

Key:
[1] = test system: Female Hartley guinea pigs; experiment: Suppression of urinary output in a guinea pig model of water-loaded polyuria; assay type: in vivo; settings: oral, total urinary output up to 3 hours after water load, relative to vehicle group
Method: The water-loaded polyuria model, commonly used as a model for polyuria, was used to evaluate the inhibitory effect of the test compounds on urinary output in the following manner. Female Hartley guinea pigs (Japan SLC Co., Ltd.) were acclimated in a metabolic cage (Natsume Seisakusho Co., Ltd.) in a fasted condition from the evening of one day before the test. On the following day, 20 mL/kg of distilled water was administered orally as a water load, and then the guinea pigs were placed back in the metabolic cage and the total urinary output up to 3 hours after the water load was downloaded into a personal computer via an electronic balance (GX-200, A&D Corporation) and a data collection and analysis system (PowerLab®, ADInstruments), and then analyzed using analyzing software (LabChart®, ADInstruments). Test compounds dissolved in 0.5% methylcellulose solution (vehicle) or vehicle only were administered orally immediately before water loading depending on the kinetics of the compound. Based on the total urinary output at 3 hours after administration of the test compound and vehicle groups, the percentage inhibition of urinary output of the test compound group (%) was calculated relative to the urinary output of the vehicle group.

human mPGES-1 = human mPGES-1 (Homo sapiens (Human), UniProt O14684); experiment: mPGES-1 inhibitory activity test; assay type: biochemical; settings: for IC50: microsomes of CHO-K1 cells expressing human mPGES-1, PGH2 1 μM, PGE2 by HTRF, read-out: mPGES-1 inhibition (IC50 nM); for inhibition at 0.01 µM: 10 nM test compound; for inhibition at 0.1 µM: 100 nM test compound
human mPGES-1, sequence (O14684 whole entry): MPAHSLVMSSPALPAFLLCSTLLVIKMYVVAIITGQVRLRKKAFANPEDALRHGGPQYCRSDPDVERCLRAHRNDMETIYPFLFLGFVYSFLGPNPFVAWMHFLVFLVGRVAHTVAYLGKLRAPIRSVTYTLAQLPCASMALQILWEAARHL
Method in brief: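 PGE2 formation was quantified by HTRF and reported as percent inhibition at 10 and 100 nM compound or as IC50. The 60-second reaction at 4° C used 1 μM PGH2, after a 20-minute 4° C preincubation of compound (1% DMSO final) with glutathione-supplemented (2.5 mM, pH 7.4) microsomes. The microsomes were from transiently transfected CHO-K1 cells expressing human mPGES-1.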

human A549 cells = experiment: Inhibition test of PGE2 production using human A549 cells; assay type: cell-based; settings: IL-1β stimulated A549 cells, 24 h, PGE2 by HTRF, read-out: A549 cell inhibition of PGE2 production IC50
Method in brief: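 A549 cells were preincubated 60 min with compound in RPMI/3% FBS (0.1% DMSO final), then stimulated with IL-1β (5 ng/well) for 24 h at 37°C. PGE2 was measured by HTRF and PGF2a by EIA; activity was normalized to stimulated minus unstimulated controls, and IC50 derived.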

Structure (SMILES): CC(C)(C)C(=O)NCc1ccc(Cl)c(C(=O)Nc2cccc3c2cnn3-c2ccnc(C3CC3)c2)c1.Cl [Example 70, 2-Chloro-N-[1-(2-cyclopropylpyridin-4-yl)-1H-indazol-4-yl]-5-{[(2,2-dimethylpropanoyl)amino]methyl}benzamide hydrochloride]
- Suppression (%) of urinary output [1]: 25.1%
- IC50 (human mPGES-1): 4.3 nM
- pIC50 (human A549 cells): 9.00

Structure (SMILES): CC(C)(C)C(=O)NCc1ccc(Cl)c(C(=O)Nc2cccc3c2cnn3-c2ccc(C3CC3)nc2)c1.Cl [Example 69, 2-Chloro-N-[1-(6-cyclopropylpyridin-3-yl)-1H-indazol-4-yl]-5-{[(2,2-dimethylpropanoyl)amino]methyl}benzamide hydrochloride]
- Suppression (%) of urinary output [1]: 57.8%
- IC50 (human mPGES-1): 3.8 nM
- pIC50 (human A549 cells): 8.68

Structure (SMILES): Cc1ccc(-n2ncc3c(NC(=O)c4cc(CNC(=O)C(C)(C)C)ccc4C(F)(F)F)cccc32)cn1.Cl [Example 88, 5-{[(2,2-Dimethylpropanoyl)amino]methyl}-N-[1-(6-methylpyridin-3-yl)-1H-indazol-4-yl]-2-(trifluoromethyl)benzamide hydrochloride]
- Suppression (%) of urinary output [1]: 34.5%
- IC50 (human mPGES-1): 1.5 nM
- pIC50 (human A549 cells): 7.17

Structure (SMILES): Cc1ccc(-n2ncc3c(NC(=O)c4cc(CNC(=O)C(C)(C)C)ccc4Cl)cccc32)nn1 [Example 59, 2-Chloro-5-{[(2,2-dimethylpropanoyl)amino]methyl}-N-[1-(6-methylpyridazin-3-yl)-1H-indazol-4-yl]benzamide]
- Suppression (%) of urinary output [1]: 21.2%
- IC50 (human mPGES-1): 34.2 nM
- pIC50 (human A549 cells): 7.61

Structure (SMILES): COc1ccc(-n2ncc3c(NC(=O)c4cc(CNC(=O)C(C)(C)C)ccc4C(F)(F)F)cccc32)cn1 [Example 276, 5-{[(2,2-Dimethylpropanoyl)amino]methyl}-N-[1-(6-methoxypyridin-3-yl)-1H-indazol-4-yl]-2-(trifluoromethyl)benzamide]
- Suppression (%) of urinary output [1]: 35.1%
- inhibition at 0.01 µM (human mPGES-1): 68%
- inhibition at 0.1 µM (human mPGES-1): 94%
- pIC50 (human A549 cells): 8.52

Structure (SMILES): O=C(Nc1cccc2c1cnn2-c1cccc(C(F)(F)F)c1)c1cc(CNC(=O)C2(C(F)(F)F)CC2)ccc1Cl [Example 220, 2-Chloro-5-[({[1-(trifluoromethyl)cyclopropyl]carbonyl}amino)methyl]-N-{1-[3-(trifluoromethyl)phenyl]-1H-indazol-4-yl}benzamide]
- inhibition at 0.01 µM (human mPGES-1): 74%
- inhibition at 0.1 µM (human mPGES-1): 90%
- pIC50 (human A549 cells): > 9.00

Structure (SMILES): CC(C)(C)C(=O)NCc1ccc(Cl)c(C(=O)Nc2cccc3c2cnn3C2CC2)c1 [Example 284, 2-Chloro-5-{[(2,2-dimethylpropanoyl)amino]methyl}-N-(1-cyclopropyl-1H-indazol-4-yl)benzamide]
- inhibition at 0.01 µM (human mPGES-1): 79%
- pIC50 (human A549 cells): 8.02

Structure (SMILES): Cc1cc(-n2ncc3c(NC(=O)c4cc(CNC(=O)C(C)(C)C)ccc4C(F)(F)F)cccc32)cc(C)n1 [Example 283, 5-{[(2,2-Dimethylpropanoyl)amino]methyl}-N-[1-(2,6-dimethylpyridin-4-yl)-1H-indazol-4-yl]-2-(trifluoromethyl)benzamide]
- inhibition at 0.01 µM (human mPGES-1): 72%
- inhibition at 0.1 µM (human mPGES-1): 96%
- pIC50 (human A549 cells): 8.72

Structure (SMILES): CC(C)(CO)C(=O)NCc1ccc(Cl)c(C(=O)Nc2cccc3c2cnn3-c2cccc(OC(F)(F)F)c2)c1 [Example 125, 2-Chloro-5-{[(3-hydroxy-2,2-dimethylpropanoyl)amino]methyl}-N-{1-[3-(trifluoromethoxy)phenyl]-1H-indazol-4-yl}benzamide]
- Suppression (%) of urinary output [1]: 58.0%
- inhibition at 0.01 µM (human mPGES-1): 62%
- pIC50 (human A549 cells): 8.46

Structure (SMILES): CCn1ncc2c(NC(=O)c3cc(CNC(=O)C(C)(C)C)ccc3C(F)(F)F)cccc21 [Example 217, 5-{[(2,2-Dimethylpropanoyl)amino]methyl}-N-(1-ethyl-1H-indazol-4-yl)-2-(trifluoromethyl)benzamide]
- inhibition at 0.01 µM (human mPGES-1): 79%
- inhibition at 0.1 µM (human mPGES-1): 80%
- pIC50 (human A549 cells): 7.83

Structure (SMILES): CC(C)(C)CC(=O)NCc1ccc(Cl)c(C(=O)Nc2cccc3c2cnn3-c2ccc(F)cc2)c1 [Example 151, 2-Chloro-5-{[(3,3-dimethylbutanoyl)amino]methyl}-N-[1-(4-fluorophenyl)-1H-indazol-4-yl]benzamide]
- inhibition at 0.01 µM (human mPGES-1): 100%
- pIC50 (human A549 cells): 7.84

Structure (SMILES): COc1ccccc1Cn1ncc2c(NC(=O)c3cc(CNC(=O)C(C)(C)C)ccc3Cl)cccc21 [Example 90, 2-Chloro-5-{[(2,2-dimethylpropanoyl)amino]methyl}-N-[1-(2-methoxybenzyl)-1H-indazol-4-yl]benzamide]
- IC50 (human mPGES-1): 2.2 nM
- pIC50 (human A549 cells): 7.75

Structure (SMILES): CC(C)(C)C(=O)NCc1ccc(Cl)c(C(=O)Nc2cccc3c2cnn3-c2ccc(F)cc2)c1Cl [Example 158, 2,6-Dichloro-3-{[(2,2-dimethylpropanoyl)amino]methyl}-N-[1-(4-fluorophenyl)-1H-indazol-4-yl]benzamide]
- inhibition at 0.01 µM (human mPGES-1): 49%
- inhibition at 0.1 µM (human mPGES-1): 100%
- pIC50 (human A549 cells): 8.80

Structure (SMILES): Cc1ccc(-n2ncc3c(NC(=O)c4cc(CNC(=O)C(C)(C)C)ccc4Cl)cccc32)cc1Cl [Example 53, 2-Chloro-N-[1-(3-chloro-4-methylphenyl)-1H-indazol-4-yl]-5-([(2,2-dimethylpropanoyl)amino]methyl)benzamide]
- IC50 (human mPGES-1): 2.6 nM
- pIC50 (human A549 cells): 8.74

Structure (SMILES): CC(C)(C)C(=O)NCc1ccc(Cl)c(C(=O)Nc2cccc3c2cnn3-c2ccc(C(F)(F)F)cc2)c1 [Example 50, 2-Chloro-5-{[(2,2-dimethylpropanoyl)amino]methyl}-N-{1-[4-(trifluoromethyl)phenyl]-1H-indazol-4-yl}benzamide]
- IC50 (human mPGES-1): 14.7 nM
- pIC50 (human A549 cells): 8.46
